The values below come from patent US20090029958A1, “PHENETHANOLAMINE DERIVATIVES AS BETA2 ADRENORECEPTOR AGONISTS” (priority 2006, published 2009).

Where a name gives a salt, the structure may show the parent alone.

Test [1] concerns the target T1, Adrenergic β2 (Homo sapiens, UniProt P07550).
T1 construct: endogenous in cells; host or cells: H292 cells
In words: cAMP production in H292 cells, AlphaScreen cAMP detection (10 minutes incubation with test compound). The format is cell-based. The note with it: for Intrinsic Activity: fraction relative to the maximum activity determined for formoterol, 10 minutes incubation; for EC50: rolipram 300 μM, test compounds incubated 10 minutes at room temperature. The method, then: H292 cells were grown in RPMI (Roswell Park Memorial Institute) medium containing, 10% (v/v) FBS (foetal bovine serum) and 2 mM L-glutamine. Cells were grown in 225 cm2 flasks containing 25 mL media in a humidified incubator at 37° C., 5% CO2. Cells were harvested from the flask and passaged at a 1 in 10 dilution once per week.
The media from flasks containing H292 cells was removed, rinsed with 10 mL PBS (phosphate buffered saline) and replaced with 10 mL Accutase™ cell detachment solution. Flasks were incubated for 15 minutes in a humidified incubator at 37° C., 5% CO2. The cell suspension was counted and the cells re-suspended in RPMI media (containing 10% (v/v) FBS and 2 mM L-glutamine) at 0.05×10^6 cells per mL. 5000 cells in 100 μL were added to each well of a tissue-culture-treated 96-well plate and the cells incubated overnight in a humidified incubator at 37° C., 5% CO2. The culture media was removed, washed twice with 100 μL assay buffer and replaced with 50 μL assay buffer. Cells were rested at room temperature for 20 minutes after which time 25 μL of rolipram (1.2 mM made up in assay buffer containing 2.4% (v/v) dimethylsulphoxide) was added. Cells were incubated with rolipram for 10 minutes after which time test compounds (made up as ×4 concentrated stocks in assay buffer containing 4% (v/v) dimethylsulphoxide) were added and the cells were incubated for 10 minutes at room temperature. Final rolipram concentration in the assay was 300 μM and final vehicle concentration was 1.6% (v/v) dimethylsulphoxide. The reaction was stopped by removing supernatants, washing once with 100 μL assay buffer and replacing with 50 μL lysis buffer. The cell monolayer was frozen at −80° C. for 30 minutes (or overnight).
(§1) The concentration of cAMP (cyclic adenosine monophosphate) in the cell lysate was determined using the AlphaScreen™ methodology. The frozen cell plate was thawed for 20 minutes on a plate shaker then 10 μL of the cell lysate was transferred to a 96-well white plate. 40 μL of mixed AlphaScreen™ detection beads (containing equal volumes of donor beads (pre-incubated with biotinylated cAMP in the dark for 30 minutes) and acceptor beads), was added to each well and the plate incubated at room temperature for 10 hours in the dark. The AlphaScreen™ signal was measured using an EnVision spectrophotometer (Perkin-Elmer Inc.) with the recommended manufacturer's settings. cAMP concentrations were determined by reference to a calibration curve determined in the same experiment using standard cAMP concentrations (made up in lysis buffer in a 96-well tissue-culture-treated plate and frozen/thawed alongside the test samples) and detected using the same protocol. Concentration response curves for agonists were constructed to determine both the pEC50 and Intrinsic Activity. Intrinsic Activity was expressed as a fraction relative to the maximum activity determined for formoterol in each experiment.

The target in test [2] is T1, Adrenergic β2. As to the kind of experiment: Alternative Adrenergic β2 Mediated cAMP Production in H292 cells (60 minutes incubation with test compound). The format is cell-based. Particulars: for Intrinsic Activity: fraction relative to the maximum activity determined for formoterol, 60 minutes incubation; for EC50: rolipram 300 μM, test compounds incubated 60 minutes at room temperature. The method, then: H292 cells were grown in 225 cm2 flasks incubator at 37° C., 5% CO2 in RPMI medium containing, 10% (v/v) FBS (foetal bovine serum) and 2 mM L-glutamine.
Adherent H292 cells were removed from tissue culture flasks by treatment with Accutase™ cell detachment solution for 15 minutes. Flasks were incubated for 15 minutes in a humidified incubator at 37° C., 5% CO2. Detached cells were re-suspended in RPMI media (containing 10% (v/v) FBS and 2 mM L-glutamine) at 0.05×10^6 cells per mL. 5000 cells in 100 μL were added to each well of a tissue-culture-treated 96-well plate and the cells incubated overnight in a humidified incubator at 37° C., 5% CO2. The culture media was removed and cells were washed twice with 100 μL assay buffer and replaced with 50 μL assay buffer (HBSS solution containing 10 mM HEPES pH7.4 and 5 mM glucose). Cells were rested at room temperature for 20 minutes after which time 25 μL of rolipram (1.2 mM made up in assay buffer containing 2.4% (v/v) dimethylsulphoxide) was added. Cells were incubated with rolipram for 10 minutes after which time test compounds were added and the cells were incubated for 60 minutes at room temperature. The final rolipram concentration in the assay was 300 μM and final vehicle concentration was 1.6% (v/v) dimethylsulphoxide. The reaction was stopped by removing supernatants, washing once with 100 μL assay buffer and replacing with 50 μL lysis buffer. The cell monolayer was frozen at −80° C. for 30 minutes (or overnight).
as §1, with “using” for “using the”, “pre-incubated” for “(containing equal volumes of donor beads (pre-incubated”, “cAMP,” for “cAMP in the dark for 30 minutes) and acceptor beads),”, “concentrations.” for “concentrations (made up in lysis buffer in a 96-well tissue-culture-treated plate and frozen/thawed alongside the test samples) and detected using the same protocol.”, “constructed and data was fitted to a four parameter logistic equation” for “constructed”

T1 sequence (P07550 whole entry): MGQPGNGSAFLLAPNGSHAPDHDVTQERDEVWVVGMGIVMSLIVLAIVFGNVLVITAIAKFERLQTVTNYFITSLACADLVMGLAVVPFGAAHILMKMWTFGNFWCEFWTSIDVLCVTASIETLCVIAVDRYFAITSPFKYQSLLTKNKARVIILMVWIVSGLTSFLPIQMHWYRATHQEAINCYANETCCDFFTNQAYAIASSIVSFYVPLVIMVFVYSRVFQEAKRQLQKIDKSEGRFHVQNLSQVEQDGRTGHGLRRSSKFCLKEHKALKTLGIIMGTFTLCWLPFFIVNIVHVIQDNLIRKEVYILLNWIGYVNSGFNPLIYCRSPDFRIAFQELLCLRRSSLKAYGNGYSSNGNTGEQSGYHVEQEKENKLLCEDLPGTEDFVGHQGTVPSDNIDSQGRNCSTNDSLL

For orientation: EC50 means the concentration needed to bring the measured effect to its halfway point. Lower therefore signals higher potency in that assay. Take `O=c1ccc2c([C@@H](O)CN[C@H]3CC[C@H](NCCOCCc4ccccc4)CC3)ccc(O)c2[nH]1` [Example 2, 8-Hydroxy-5-{(1R)-1-hydroxy-2-[(trans-4-{[2-(2-phenylethoxy)ethyl]amino}cyclohexyl)amino]ethyl}quinolin-2(1H)-one]: at Adrenergic β2 [1], the “Intrinsic Activity” value was found to be 0.9 and the EC50 is 20 nM. For the compound `O=c1ccc2c([C@@H](O)CNCC3(O)CCN(CCOCCc4cccc5c4CCCC5)CC3)ccc(O)c2[nH]1` [Example 74, 8-Hydroxy-5-{(2R)-1-hydroxy-2-[(4-hydroxy-1-{2-[2-(5,6,7,8-tetrahydronaphthalen-1-yl)ethoxy]ethyl}piperidin-4-ylmethyl)amino]ethyl}-1H-quinolin-2-one], at Adrenergic β2 [2], the “Intrinsic Activity” value is 0.9 and the EC50 was 0.794 nM.

`O=C(CCN1CCC(NC[C@H](O)c2ccc(O)c3[nH]c(=O)ccc23)CC1)NC12CC3CC(CC(C3)C1)C2` [Example 41, N-1-Adamantyl-3-(4-{[(2R)-2-hydroxy-2-(8-hydroxy-2-oxo-1,2-dihydroquinolin-5-yl)ethyl]amino}piperidin-1-yl)propanamide]: on Adrenergic β2 [2], the “Intrinsic Activity” value is listed as 0.8 and the response was half-maximal at 3.98 nM (EC50). `Cc1cccc(Cl)c1CNC(=O)CCN1CCC(NC[C@H](O)c2ccc(O)c3[nH]c(=O)ccc23)CC1` [Example 31, N-(2-Chloro-6-methylbenzyl)-3-(4-{[(2R)-2-hydroxy-2-(8-hydroxy-2-oxo-1,2-dihydroquinolin-5-yl)ethyl]amino}piperidin-1-yl)propanamide]: at Adrenergic β2 [2], the “Intrinsic Activity” value amounted to 0.8 and the EC50 is 5.01 nM. As to `O=c1ccc2c([C@@H](O)CNCC3(O)CCN(CCOCCc4ccccc4)CC3)ccc(O)c2[nH]1` [Example 5, 8-Hydroxy-5-{(1R)-1-hydroxy-2-[({4-hydroxy-1-[2-(2-phenylethoxy)ethyl]piperidin-4-yl}methyl)amino]ethyl}quinolin-2(1H)-one], at Adrenergic β2 [1], the “Intrinsic Activity” value was 0.8 and the EC50 is 2.51 nM.

As for `O=C(CCN1CCC(NC[C@H](O)c2ccc(O)c3[nH]c(=O)ccc23)CC1)NCc1cccc(Cl)c1Cl` [Example 36, N-(2,3-Dichlorobenzyl)-3-(4-{[(2R)-2-hydroxy-2-(8-hydroxy-2-oxo-1,2-dihydroquinolin-5-yl)ethyl]amino}piperidin-1-yl)propanamide], the EC50 on Adrenergic β2 [2] was 3.16 nM. With `O=c1ccc2c([C@@H](O)CNC3CCN(CCCOCCc4ccccc4)CC3)ccc(O)c2[nH]1` [Example 3, 8-Hydroxy-5-[(1R)-1-hydroxy-2-({1-[3-(2-phenylethoxy)propyl]piperidin-4-yl}amino)ethyl]quinolin-2(1H)-one], at Adrenergic β2 [1], the “Intrinsic Activity” value worked out at 0.8 and the EC50 was 31.6 nM. With `O=c1[nH]c2c(O)ccc([C@@H](O)CNCC3CN(CCCOCCc4ccccc4)C3)c2s1` [Example 20, 4-Hydroxy-7-{(1R)-1-hydroxy-2-[({1-[3-(2-phenylethoxy)propyl]azetidin-3-yl}methyl)amino]ethyl}-1,3-benzothiazol-2(3H)-one hydrochloride], on Adrenergic β2 [2], the “Intrinsic Activity” value was found to be 1 and the midpoint of the response, the EC50, lay at 0.316 nM. Take `O=c1ccc2c([C@@H](O)CNC[C@H]3CCCN(CCOCCc4ccccc4)C3)ccc(O)c2[nH]1` [Example 14, 8-Hydroxy-5-{(1R)-1-hydroxy-2-[({(3R)-1-[2-(2-phenylethoxy)ethyl]piperidin-3-yl}methyl)amino]ethyl}quinolin-2(1H)-one]: on Adrenergic β2 [1], the “Intrinsic Activity” value came to 1.0 and it took 5.01 nM to reach a half-maximal effect (EC50).

For the compound `O=C(CCN1CCC(NC[C@H](O)c2ccc(O)c3[nH]c(=O)ccc23)CC1)NCc1ccccc1` [Example 6, N-Benzyl-3-(4-{[(2R)-2-hydroxy-2-(8-hydroxy-2-oxo-1,2-dihydroquinolin-5-yl)ethyl]amino}piperidin-1-yl)propanamide], on Adrenergic β2 [1], the “Intrinsic Activity” value turned out to be 0.8 and the EC50 is 7.94 nM.
